Our source for the mutagenic call values is PubChem BioAssay AID1259407 (Chemical Carcinogenesis Research Information System (CCRIS), 2018).

Activity calls are given as the source filed them. How the calls were made is not given here.

This series relates to CCRIS mutagenicity, Ames/micronucleus/aberration tests. Nature of the series: CCRIS mutagenicity studies.
[1] abbreviates: Test System: AMES SALMONELLA TYPHIMURIUM, Strain/Indicator: TA98, Metabolic Activation: NONE, Method: STANDARD PLATE.
Where [2] appears, read: Test System: AMES SALMONELLA TYPHIMURIUM, Strain/Indicator: TA100, Metabolic Activation: NONE, Method: STANDARD PLATE.
[3] abbreviates: Test System: MOUSE LYMPHOMA, Strain/Indicator: L5178Y (TK+/TK-), Metabolic Activation: RAT, LIVER, S-9, AROCLOR 1254, Method: SUSPENSION/PLATE.
Where [4] appears, read: Test System: AMES SALMONELLA TYPHIMURIUM, Strain/Indicator: TA100, Metabolic Activation: NONE, Method: PREINCUBATION

As for `C[CH2][Ge]([Cl])([CH2]C)[CH2]C`, the mutagenic call reads like this: (Test System: AMES SALMONELLA TYPHIMURIUM, Strain/Indicator: TA98, Metabolic Activation: HAMSTER, LIVER, S-9, AROCLOR 1254 (10%), Method: STANDARD PLATE) “inactive; negative”; under setting [1], “inactive; negative”; (Test System: AMES SALMONELLA TYPHIMURIUM, Strain/Indicator: TA98, Metabolic Activation: RAT, LIVER, S-9, AROCLOR 1254 (10%), Method: STANDARD PLATE) “inactive; negative”; (Test System: AMES SALMONELLA TYPHIMURIUM, Strain/Indicator: TA100, Metabolic Activation: HAMSTER, LIVER, S-9, AROCLOR 1254 (10%), Method: STANDARD PLATE) “inactive; negative”; under setting [2], “inactive; negative”; (Test System: AMES SALMONELLA TYPHIMURIUM, Strain/Indicator: TA100, Metabolic Activation: RAT, LIVER, S-9, AROCLOR 1254 (10%), Method: STANDARD PLATE) “inactive; negative”. The mutagenic call was “inactive; negative” (Test System: AMES SALMONELLA TYPHIMURIUM, Strain/Indicator: TA1535, Metabolic Activation: HAMSTER, LIVER, S-9, AROCLOR 1254 (10%), Method: STANDARD PLATE); “inactive; negative” (Test System: AMES SALMONELLA TYPHIMURIUM, Strain/Indicator: TA1535, Metabolic Activation: NONE, Method: STANDARD PLATE); “inactive; negative” (Test System: AMES SALMONELLA TYPHIMURIUM, Strain/Indicator: TA1535, Metabolic Activation: RAT, LIVER, S-9, AROCLOR 1254 (10%), Method: STANDARD PLATE); “inactive; negative” (Test System: AMES SALMONELLA TYPHIMURIUM, Strain/Indicator: TA1537, Metabolic Activation: HAMSTER, LIVER, S-9, AROCLOR 1254 (10%), Method: STANDARD PLATE); “inactive; negative” (Test System: AMES SALMONELLA TYPHIMURIUM, Strain/Indicator: TA1537, Metabolic Activation: NONE, Method: STANDARD PLATE); “inactive; negative” (Test System: AMES SALMONELLA TYPHIMURIUM, Strain/Indicator: TA1537, Metabolic Activation: RAT, LIVER, S-9, AROCLOR 1254 (10%), Method: STANDARD PLATE). The mutagenic call reads like this: (Test System: AMES SALMONELLA TYPHIMURIUM, Strain/Indicator: TA1538, Metabolic Activation: HAMSTER, LIVER, S-9, AROCLOR 1254 (10%), Method: STANDARD PLATE) “inactive; negative”; (Test System: AMES SALMONELLA TYPHIMURIUM, Strain/Indicator: TA1538, Metabolic Activation: NONE, Method: STANDARD PLATE) “inactive; negative”; (Test System: AMES SALMONELLA TYPHIMURIUM, Strain/Indicator: TA1538, Metabolic Activation: RAT, LIVER, S-9, AROCLOR 1254 (10%), Method: STANDARD PLATE) “inactive; negative”; (Test System: MOUSE LYMPHOMA, Strain/Indicator: L5178Y (TK+/TK-), Metabolic Activation: NONE, Method: SUSPENSION/PLATE) “inactive; negative. reevaluation of results: inconclusive”; under setting [3], “inactive; negative. reevaluation of results: negative”.
As for `COc1cc2c(c3oc(=O)c4c(c13)CCOC4=O)[C@@H]1CCO[C@@H]1O2`, the mutagenic call under setting [4] was “inactive; negative” and the mutagenic call (Test System: AMES SALMONELLA TYPHIMURIUM, Strain/Indicator: TA100, Metabolic Activation: RAT, LIVER, S-9, PHENOBARBITAL, Method: PREINCUBATION) is “inactive; negative”.
In the case of `[O]=[Mo](=[O])=[O]`, the mutagenic call (Test System: AMES SALMONELLA TYPHIMURIUM, Strain/Indicator: TA97, Metabolic Activation: HAMSTER, LIVER, S-9, AROCLOR 1254 (10%), Method: PREINCUBATION) is “inactive; negative”; the mutagenic call (Test System: AMES SALMONELLA TYPHIMURIUM, Strain/Indicator: TA97, Metabolic Activation: HAMSTER, LIVER, S-9, AROCLOR 1254 (30%), Method: PREINCUBATION) is “inactive; negative”; the mutagenic call (Test System: AMES SALMONELLA TYPHIMURIUM, Strain/Indicator: TA97, Metabolic Activation: NONE, Method: PREINCUBATION) was “inactive; negative”; the mutagenic call (Test System: AMES SALMONELLA TYPHIMURIUM, Strain/Indicator: TA97, Metabolic Activation: RAT, LIVER, S-9, AROCLOR 1254 (10%), Method: PREINCUBATION) is “inactive; negative”; the mutagenic call (Test System: AMES SALMONELLA TYPHIMURIUM, Strain/Indicator: TA97, Metabolic Activation: RAT, LIVER, S-9, AROCLOR 1254 (30%), Method: PREINCUBATION) is “inactive; negative”; the mutagenic call (Test System: AMES SALMONELLA TYPHIMURIUM, Strain/Indicator: TA98, Metabolic Activation: HAMSTER, LIVER, S-9, AROCLOR 1254 (10 OR 30%), Method: PREINCUBATION) is “inactive; negative”. In addition, the mutagenic call was “inactive; negative” (Test System: AMES SALMONELLA TYPHIMURIUM, Strain/Indicator: TA98, Metabolic Activation: NONE, Method: PREINCUBATION); “inactive; negative” (Test System: AMES SALMONELLA TYPHIMURIUM, Strain/Indicator: TA98, Metabolic Activation: RAT, LIVER, S-9, AROCLOR 1254 (10 OR 30%), Method: PREINCUBATION); “inactive; negative” (Test System: AMES SALMONELLA TYPHIMURIUM, Strain/Indicator: TA100, Metabolic Activation: HAMSTER, LIVER, S-9, AROCLOR 1254 (10% OR 30%), Method: PREINCUBATION); “inactive; negative” under setting [4]; “inactive; negative” (Test System: AMES SALMONELLA TYPHIMURIUM, Strain/Indicator: TA100, Metabolic Activation: RAT, LIVER, S-9, AROCLOR 1254 (10% OR 30%), Method: PREINCUBATION); “inactive; negative” (Test System: AMES SALMONELLA TYPHIMURIUM, Strain/Indicator: TA1535, Metabolic Activation: HAMSTER, LIVER, S-9, AROCLOR 1254 (10%), Method: PREINCUBATION). Further, the mutagenic call by setting is: (Test System: AMES SALMONELLA TYPHIMURIUM, Strain/Indicator: TA1535, Metabolic Activation: HAMSTER, LIVER, S-9, AROCLOR 1254 (30%), Method: PREINCUBATION) “inactive; negative”; (Test System: AMES SALMONELLA TYPHIMURIUM, Strain/Indicator: TA1535, Metabolic Activation: NONE, Method: PREINCUBATION) “inactive; negative”; (Test System: AMES SALMONELLA TYPHIMURIUM, Strain/Indicator: TA1535, Metabolic Activation: RAT, LIVER, S-9, AROCLOR 1254 (10%), Method: PREINCUBATION) “inactive; negative”; (Test System: AMES SALMONELLA TYPHIMURIUM, Strain/Indicator: TA1535, Metabolic Activation: RAT, LIVER, S-9, AROCLOR 1254 (30%), Method: PREINCUBATION) “inactive; negative”; (Test System: AMES SALMONELLA TYPHIMURIUM, Strain/Indicator: TA1537, Metabolic Activation: HAMSTER, LIVER, S-9, AROCLOR 1254 (30%), Method: PREINCUBATION) “inactive; negative”; (Test System: AMES SALMONELLA TYPHIMURIUM, Strain/Indicator: TA1537, Metabolic Activation: NONE, Method: PREINCUBATION) “inactive; negative”. For the same compound, the mutagenic call reads like this: (Test System: AMES SALMONELLA TYPHIMURIUM, Strain/Indicator: TA1537, Metabolic Activation: RAT, LIVER, S-9, AROCLOR 1254 (30%), Method: PREINCUBATION) “inactive; negative”; under setting [3], “active; positive. reevaluation of results: positive”; (Test System: Mouse lymphoma, Strain/Indicator: L5178Y (tk+/tk-), Metabolic Activation: None, Method: Suspension/plate) “inactive; inconclusive (previous evaluation negative)”.
As to `c1ccc2c(c1)ccc1ccc3ccsc3c12`, the mutagenic call is “active; positive” (Test System: Ames Salmonella typhimurium, Strain/Indicator: TA98, Metabolic Activation: None, Method: Plate incorporation); “active; positive” (Test System: Ames Salmonella typhimurium, Strain/Indicator: TA100, Metabolic Activation: None, Method: Plate incorporation); “inactive; negative” (Test System: Ames Salmonella typhimurium, Strain/Indicator: TA1040, Metabolic Activation: None, Method: Plate incorporation).
Regarding `C=CCC1OC(=O)C=CC1O` (configuration not stated), the mutagenic call is “inactive; negative” under setting [1]; “inactive; negative” (Test System: AMES SALMONELLA TYPHIMURIUM, Strain/Indicator: TA98, Metabolic Activation: RAT, LIVER, S-9, AROCLOR 1254, Method: STANDARD PLATE); “inactive; negative” under setting [2]; “inactive; negative” (Test System: AMES SALMONELLA TYPHIMURIUM, Strain/Indicator: TA100, Metabolic Activation: RAT, LIVER, S-9, AROCLOR 1254, Method: STANDARD PLATE).
